According to ChEMBL document CHEMBL1135481, “SMall Molecule Growth 2001 (SMoG2001): an improved knowledge-based scoring function for protein-ligand interactions” (J Med Chem, 2002):
Numbered stars: 1 amine (or outer) side, 2 acyl side, 3 side chain; on linkers, the order of the positions; unused ones are H or OH. Square brackets hold non-standard residues; d marks the D form. Peptide text beside a SMILES is read from it. Phe(ψ(S)CH(OH)CH2N)Pro = O=C([C@@H]1CCCN1C[C@H](O)[C@H](Cc1ccccc1)N[*:1])[*:2]

Tests used:
[1] = tested on: Purine nucleoside phosphorylase; test: Binding affinity against Purine Nucleoside Phosphorylase
[2] = Binding affinity against Arabinose binding protein of the compound
[3] = biological target: Prothrombin (Homo sapiens) (UniProt P00734); test: Binding affinity against thrombin
[4] = biological target: T1, Mast cell carboxypeptidase A (Homo sapiens) (UniProt P15088); test: Binding affinity against Carboxypeptidase A
T1 sequence (whole entry): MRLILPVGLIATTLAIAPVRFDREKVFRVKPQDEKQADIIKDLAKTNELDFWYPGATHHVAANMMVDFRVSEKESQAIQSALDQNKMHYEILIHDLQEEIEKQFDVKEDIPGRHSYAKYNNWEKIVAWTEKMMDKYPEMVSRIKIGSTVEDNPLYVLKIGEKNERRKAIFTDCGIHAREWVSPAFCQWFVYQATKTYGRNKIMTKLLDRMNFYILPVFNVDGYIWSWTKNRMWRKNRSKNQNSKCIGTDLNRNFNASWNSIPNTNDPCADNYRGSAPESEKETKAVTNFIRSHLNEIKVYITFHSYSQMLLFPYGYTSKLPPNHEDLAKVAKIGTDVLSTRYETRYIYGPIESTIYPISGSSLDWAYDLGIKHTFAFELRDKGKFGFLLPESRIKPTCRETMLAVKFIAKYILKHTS

[5] = biological target: Human immunodeficiency virus type 1 protease (Human immunodeficiency virus 1) (UniProt Q72874); test: Affinity for HIV Protease
[6] = biological target: T2, Thermolysin (Bacillus thermoproteolyticus) (UniProt P00800); test: Binding affinity against Thermolysin
T2 sequence (whole entry): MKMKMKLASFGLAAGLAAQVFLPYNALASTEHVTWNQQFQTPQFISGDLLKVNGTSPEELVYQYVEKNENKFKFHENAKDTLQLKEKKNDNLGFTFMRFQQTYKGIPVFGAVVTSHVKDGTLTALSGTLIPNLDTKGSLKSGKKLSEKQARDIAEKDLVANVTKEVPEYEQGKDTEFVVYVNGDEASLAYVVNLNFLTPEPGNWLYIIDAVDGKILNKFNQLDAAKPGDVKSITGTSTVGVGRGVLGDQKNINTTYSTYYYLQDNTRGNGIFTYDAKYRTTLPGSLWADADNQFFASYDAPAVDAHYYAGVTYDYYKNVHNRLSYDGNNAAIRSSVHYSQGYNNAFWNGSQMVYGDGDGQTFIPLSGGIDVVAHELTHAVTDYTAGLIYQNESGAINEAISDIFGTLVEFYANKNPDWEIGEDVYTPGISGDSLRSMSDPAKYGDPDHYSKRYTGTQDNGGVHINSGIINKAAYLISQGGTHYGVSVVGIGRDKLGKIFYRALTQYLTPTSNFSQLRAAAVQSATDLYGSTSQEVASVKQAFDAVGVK

[7] = Binding affinity against Glucose binding protein
[8] = Binding affinity against Penicillopepsin
[9] = Binding affinity against Endothiapepsin
[10] = biological target: Serine protease 1 (Homo sapiens) (UniProt P07477); test: Binding affinity against trypsin
Sequence of Serine protease 1 (Homo sapiens) (P07477 whole entry): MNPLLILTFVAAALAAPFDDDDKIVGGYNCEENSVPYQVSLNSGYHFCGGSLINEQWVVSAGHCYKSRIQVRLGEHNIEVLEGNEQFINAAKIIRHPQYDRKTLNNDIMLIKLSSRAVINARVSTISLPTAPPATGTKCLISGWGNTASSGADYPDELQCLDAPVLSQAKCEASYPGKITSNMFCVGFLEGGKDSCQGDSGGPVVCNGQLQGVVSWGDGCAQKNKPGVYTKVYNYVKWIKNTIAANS

[11] = Binding affinity against Retinol-binding protein
[12] = Binding affinity against immunoglobulin
[13] = Binding affinity against FK506 binding protein

Question: Which Log Kd [1] does the source give for `O=P(O)(O)OP(=O)(O)OP(=O)(O)OP(=O)(O)OP(=O)(O)OC[C@H]1O[C@@H](n2cnc3cncnc32)[C@H](O)[C@@H]1O` here?
Answer: -5.96

Question: For `OC[C@H]1O[C@@H](O)[C@H](O)[C@@H](O)[C@H]1O`, which Log Kd [2] is on record?
Answer: -6.65

Question: For `NC(N)=NCCC[C@H](NC(=O)[C@@H]1CCCN1C(=O)C(N)Cc1ccccc1)C(=O)O` (stereo in doubt), which Log Kd [3] is on record?
Answer: -6.24

Question: Which Log Kd [4] does the source give for `NCCCC[C@H](NC(=O)CN)C(=O)O` (H-Gly-Lys-OH) here?
Answer: -3.89

Question: For `CC[C@H](C)[C@H](NC(=O)[C@@H]1CCCN1C[C@H](O)[C@H](Cc1ccccc1)NC(=O)[C@H](CC(N)=O)NC(=O)[C@H](CC(C)C)NC(=O)[C@H](CO)NC(C)=O)C(=O)N[C@H](C(=O)OC)C(C)C` (Ac-SLN[Phe(ψ(S)CH(OH)CH2N)Pro]IV-OMe), which Log Kd [5] is on record?
Answer: -9.63

Question: Which Log Kd [6] does the source give for `O=[N+]([O-])Nc1ccccc1` here?
Answer: -6.37

Question: With `CC(C)C[C@H](NP(=O)(O)O[C@@H]1O[C@@H](C)[C@H](O)[C@@H](O)[C@H]1O)C(=O)N[C@@H](Cc1c[nH]c2ccccc12)C(=O)O` as the compound, how does the Log Kd [6] read?
Answer: -7.56

Question: For `OC[C@H]1OC(O)[C@H](O)[C@@H](O)[C@@H]1O` (stereo not given in full), which Log Kd [7] is on record?
Answer: -7.6

Question: With `CCOC(=O)CC(OP(=O)(O)O)C(CC(C)C)NC(=O)[C@@H](NC(=O)[C@@H](NC(=O)CC(C)C)C(C)C)C(C)C` (stereo not given in full) as the compound, how does the Log Kd [8] read?
Answer: -7.66

Question: For `CC[C@H](C)[C@@H](NC(=O)[C@@H](C[C@H](O)[C@H](CC(C)C)NC(=O)[C@H](Cc1c[nH]cn1)NC(=O)[C@H](Cc1ccccc1)NC(=O)[C@@H]1CCCN1C(=O)[C@@H](N)Cc1c[nH]cn1)C(C)C)C(=O)N[C@@H](Cc1c[nH]cn1)C(=O)O`, which Log Kd [9] is on record?
Answer: -9.02

Question: For `CC(C)N(C[C@H](O)[C@H](CC1CCCCC1)NC(=O)[C@H](Cc1c[nH]cn1)NC(=O)[C@H](Cc1ccccc1)NC(=O)OC(C)(C)C)C(=O)N[C@@H](CCCCN)C(=O)N[C@@H](Cc1ccccc1)C(=O)O`, which Log Kd [9] is on record?
Answer: -6.58

Question: Which Log Kd [9] does the source give for `CCC(C)CNC(=O)C(CC(C)C)CC(O)C(CC1CCCCC1)NC(=O)C(Cc1c[nH]cn1)NC(=O)C(Cc1cccc2ccccc12)Cc1cccc2ccccc12` (stereo not given) here?
Answer: -6.63

Question: Which Log Kd [10] does the source give for `NCCCCc1ccccc1` here?
Answer: -1.7

Question: With `COC(=O)[C@@H](NC(=O)[C@@H](NC(=O)[C@H](C)N1CCC([C@H](C)NC(=O)[C@H](C)N)=C[C@@H](Cc2ccccc2)C1)C(C)C)C(C)C` as the compound, how does the Log Kd [5] read?
Answer: -6.37

Question: Which Log Kd [11] does the source give for `CC1=C(/C=C/C(C)=C/C=C/C(C)=C/CO)C(C)(C)CCC1` here?
Answer: -6.72

Question: With `CC=O` as the compound, how does the Log Kd [5] read?
Answer: -8.41

Question: With `CC(C)[C@H](NC(=O)N(C)Cc1ccccn1)C(=O)N[C@@H](Cc1ccccc1)[C@@H](O)[C@H](O)[C@H](Cc1ccccc1)NC(=O)[C@@H](NC(=O)N(C)Cc1ccccn1)C(C)C` as the compound, how does the Log Kd [5] read?
Answer: -9.01

Question: For `O=P(O)(O)OP(=O)(O)OC[C@H]1O[C@@H](n2cnc3cncnc32)[C@H](O)[C@@H]1O`, which Log Kd [1] is on record?
Answer: -6.22

Question: For `CC(C)C[C@H](NP(=O)(O)O)C(N)=O`, which Log Kd [6] is on record?
Answer: -5.89

Question: Which Log Kd [6] does the source give for `CC(C)C[C@H](NC(CCc1ccccc1)C(=O)O)C(=O)N[C@@H](Cc1c[nH]c2ccccc12)C(=O)O` (stereo not given in full) here?
Answer: -7.13

Question: With `OC1OC[C@H](O)[C@H](O)[C@H]1O` (stereo not given in full) as the compound, how does the Log Kd [2] read?
Answer: -7.03

Question: For `O=C(N[C@H]1c2ccccc2C[C@H]1O)[C@H](Cc1ccccc1)CC(O)C[C@@H](Cc1ccccc1)C(=O)N[C@H]1c2ccccc2C[C@H]1O`, which Log Kd [5] is on record?
Answer: -9.15

Question: Which Log Kd [6] does the source give for `CC(C)C[C@H](N)C(=O)NO` here?
Answer: -3.72

Question: For `N#Cc1ccc(NC(=N)NC(c2ccccc2)c2ccccc2)cc1`, which Log Kd [12] is on record?
Answer: -7.28

Question: With `C=CC[C@@H]1/C=C(\C)C[C@H](C)C[C@H](OC)[C@H]2O[C@@](O)(C(=O)C(=O)N3CCCC[C@H]3C(=O)O[C@H](/C(C)=C/[C@@H]3CC[C@@H](O)[C@H](OC)C3)[C@H](C)[C@@H](O)CC1=O)[C@H](C)C[C@@H]2OC` as the compound, how does the Log Kd [13] read?
Answer: -9.7
